Assay results as given in patent publication US20190345202A1, “ANDROGEN RECEPTOR ANTISENSE OLIGONUCLEOTIDES” (OliPass Corporation, priority 2016, published 2019).
[C(1O2)] = PNA monomer with modified cytosine C(1O2), structure; [A(5)] = PNA monomer with modified adenine A(5), structure; {Fethoc} = Fethoc group on PNA N-terminus; {NH2} = C-terminal amide

Columns and labels:
AR protein = assay: AR IHC of tissues of mice subcutaneously administered; format: in vivo, mouse; conditions: subcutaneous, dose increased from 0.01 to 0.1 pmole/Kg, 2× per week for 4 weeks, male C57BL/6 mice
Excerpt: 12 weeks old male C57BL/6 mice were randomly assigned to 3 groups of negative control (no ASO treatment), 0.01 pmole/Kg “ASO 10” and 0.1 pmole/Kg “ASO 10”. (3 animals per group) Mice subcutaneously received either vehicle or ASO dissolved in vehicle (PBS) 2× per week for 4 weeks according to the dosing group. Three days post the final dosing, the animals were anesthetized with zoletil/rompun and subjected to tissue or organ sampling for AR IHC by paraffin blolck.
The AR protein was probed in series with a primary antibody (Cat. No. sc-816, Santa Cruz) at 1:100 dilution, a secondary anti-rabbit IgG (Cat. No. BA-1100, VECTOR) at 1:200 dilution, and Dylight 594-Streptavidin (Cat. No. SA-5594, VECTOR) at 1:200. Nucleus was stained with DAPI. IHC fluorescence images were captured on a Zeiss slide scanner.

androgen receptor = assay: AR IHC of skin samples after topical administration in mice; format: in vivo, mouse; conditions: topical 1, 5, or 25 fM, skin samples Day 30
Excerpt: [AR IHC of Skin Sample] Following the shaving in Day 21, the mice received a single topical administration of either vehicle or “ASO 1” according to the group. In Day 24, the skin of the area with hair removal was sampled for immunohistochemistry (IHC) analysis against androgen receptor. The skin samples were cryo-sectioned and subjected to immunostaining in series with a primary anti-AR antibody (Cat. No. sc-816, Santa Cruz) at 1:100 dilution, with a secondary anti-IgG (Cat No. BA-1100, Vector) at 1:200 dilution, and then with Dylight 594-steptavidin (Cat No. SA-5594, Vector, Calif., USA) at 1:200 dilution for red fluoresence tagging. The IHC images were captured on an Olympus fluorescence microscope for changes in the AR expression level upon topical treatment with “ASO 1”.
[AR Immunohistochemistry of Skin Samples] After the hair cut in Day 27, The animals topically received further either vehicle or “ASO 10” at 1, 5, or 25 fM in Days 27 and 29. Skin samples of the back were collected in Day 30 for immunohistochemical analysis against androgen receptor. The skin samples were subjected to immunostaining against androgen receptor as described in “Example 7”. IHC images were captured on a Zeiss slide scanner. FIG. 14B is a representative set of AR IHC images. […] It would be difficult to clearly state that the AR expression in hair follicles decreased in the treatment groups due to the marked increases in the number of hair follicles in the treatment groups.

human AR pre-mRNA = assay: AR nested PCR for skipping of AR exon 5 in MCF7 cells; format: cell-based; conditions: 3 aM to 3 fM, 3 hours
Description: “ASO 5” was evaluated by AR nested PCR for its ability to induce the skipping of AR “exon 5” in MCF7 cells (Cat. Number: HTB-22, ATCC). The employed procedures are detailed as follows.
[Cell Culture & ASO Treatment] MCF7 cells were grown in EMEM medium supplemented with 10% FBS, 1% streptomycin/penicillin, and 0.01 mg/ml bovine insulin under 5% CO2 atmosphere at 37° C. Cells were sub-cultured in 60 mm culture dish prior to treatment with “ASO 5” at 3 aM to 3 fM.
[RNA Extraction] MCF7 cells were incubated with or without “ASO 5” for 3 hours. Total RNA was extracted from cells in 60 mm culture dish using “Universal RNA Extraction Kit” (Cat. No. 9767, Takara) according to the manufacturer's instructions [cDNA Synthesis by One-step PCR]
[Nested PCR Amplification] Throughout the amplification process, was used a unique amplification technique (touch up as increasing annealing temperature per cycle) that worked efficiently and specifically over a temperature range, rather than at one specific annealing temperature (i.e. conventional PCR method). […]
[Identification of Exon Skipping Products] […] The bands of target size were collected and analyzed by Sanger Sequencing. […]

full-length AR protein = assay: Western blot of AR protein in MCF7 cells; format: cell-based, human; conditions: 10 zM to 30 aM
Description: 4 culture dishes were used for 4 negative controls. 48 hours later, cells were washed 2 times with cold PBS, and then subjected to lysis with 200 μL 1× cell lysis buffer (Cat. No. 9803, Cell Signaling Tech) supplemented with 1× protease inhibitor (Cat. No. P8340, Sigma). The lysates were collected in 1.5 ml e-tube. 200 μL of each lysate was mixed with 100 μL 3× sample buffer, and boiled for 5 min at 100 ? . 20 μL of each lysate (12 lysates in total). 4 negative controls and 8 ASO treatment samples) was subjected to electrophoretic separation on a 8% SDS-PAGE gel, and transferred onto a 0.2 μm PVDF membrane. The membrane was probed with anti-AR antibody (Cat. No. 5153, Cell Signaling Tech) and anti-β-actin antibody (Cat. No. sc4778, Santa Cruz). FIG. 10A provides the AR Western blot data obtained therefrom. Multiple (negative) control samples were used to overcome technical artifacts of western blot procedures.

Fethoc-C(1O2)TT-A(5)CC-A(5)GG(6)-CA(5)A-NH2 (antisense CTTACCAGGCAA; N-Fethoc, C-terminal amide, chemistry not fully specified) [ASO 10]
AR expression in epidermis distal to the injection site, liver, testis and prostate (IHC) (AR protein): markedly decreased
number of hair follicles vs negative control group (IHC images) (androgen receptor): increased markedly
AR expression in the muscle layer underneath the dermis (IHC) (androgen receptor; most notable at 5 fM): markedly decreased

Fethoc-C(1O2)TT-A(5)CC-A(5)GG-C(1O2)AA(5)-G-NH2 (antisense CTTACCAGGCAAG; all peptide nucleic acid (PNA), [C(1O2)] at 1, 10, [A(5)] at 4, 7, 12, 5' {Fethoc}, 3' {NH2}; peptide nucleic acid, written N to C terminus) [ASO 5]
exon skipping (AR mRNA splice variants by nested PCR and Sanger sequencing) (human AR pre-mRNA): induce the skipping of “exon 5”, “exons 4-5”, and “exons 4-6”
AR band intensity vs neighboring lysates without ASO treatment (full-length AR protein): considerably weaker
